PMC5564600 (Oncotarget, 2017)

What was measured:
Test in all cases: biochemical
Type in all cases: binding
panel of 442 kinases [1] = biological target: T1, panel of 442 kinases (Homo sapiens, UniProt Q9H4B4); conditions: kinase PLK3; for remaining activity at 1 µM: read-out: PLK3 (% of control at 1 µM)
T1 construct: purchased Ambit Biosciences (scanMAXX KINOMEscan)

panel of 442 kinases [2] = biological target: T2, panel of 442 kinases (Homo sapiens, UniProt Q8N4C8); conditions: kinase MINK; for remaining activity at 1 µM: read-out: % of control at 1 µM
T2 construct: purchased Ambit Biosciences (scanMAXX KINOMEscan)
T2 sequence (Q8N4C8 whole entry): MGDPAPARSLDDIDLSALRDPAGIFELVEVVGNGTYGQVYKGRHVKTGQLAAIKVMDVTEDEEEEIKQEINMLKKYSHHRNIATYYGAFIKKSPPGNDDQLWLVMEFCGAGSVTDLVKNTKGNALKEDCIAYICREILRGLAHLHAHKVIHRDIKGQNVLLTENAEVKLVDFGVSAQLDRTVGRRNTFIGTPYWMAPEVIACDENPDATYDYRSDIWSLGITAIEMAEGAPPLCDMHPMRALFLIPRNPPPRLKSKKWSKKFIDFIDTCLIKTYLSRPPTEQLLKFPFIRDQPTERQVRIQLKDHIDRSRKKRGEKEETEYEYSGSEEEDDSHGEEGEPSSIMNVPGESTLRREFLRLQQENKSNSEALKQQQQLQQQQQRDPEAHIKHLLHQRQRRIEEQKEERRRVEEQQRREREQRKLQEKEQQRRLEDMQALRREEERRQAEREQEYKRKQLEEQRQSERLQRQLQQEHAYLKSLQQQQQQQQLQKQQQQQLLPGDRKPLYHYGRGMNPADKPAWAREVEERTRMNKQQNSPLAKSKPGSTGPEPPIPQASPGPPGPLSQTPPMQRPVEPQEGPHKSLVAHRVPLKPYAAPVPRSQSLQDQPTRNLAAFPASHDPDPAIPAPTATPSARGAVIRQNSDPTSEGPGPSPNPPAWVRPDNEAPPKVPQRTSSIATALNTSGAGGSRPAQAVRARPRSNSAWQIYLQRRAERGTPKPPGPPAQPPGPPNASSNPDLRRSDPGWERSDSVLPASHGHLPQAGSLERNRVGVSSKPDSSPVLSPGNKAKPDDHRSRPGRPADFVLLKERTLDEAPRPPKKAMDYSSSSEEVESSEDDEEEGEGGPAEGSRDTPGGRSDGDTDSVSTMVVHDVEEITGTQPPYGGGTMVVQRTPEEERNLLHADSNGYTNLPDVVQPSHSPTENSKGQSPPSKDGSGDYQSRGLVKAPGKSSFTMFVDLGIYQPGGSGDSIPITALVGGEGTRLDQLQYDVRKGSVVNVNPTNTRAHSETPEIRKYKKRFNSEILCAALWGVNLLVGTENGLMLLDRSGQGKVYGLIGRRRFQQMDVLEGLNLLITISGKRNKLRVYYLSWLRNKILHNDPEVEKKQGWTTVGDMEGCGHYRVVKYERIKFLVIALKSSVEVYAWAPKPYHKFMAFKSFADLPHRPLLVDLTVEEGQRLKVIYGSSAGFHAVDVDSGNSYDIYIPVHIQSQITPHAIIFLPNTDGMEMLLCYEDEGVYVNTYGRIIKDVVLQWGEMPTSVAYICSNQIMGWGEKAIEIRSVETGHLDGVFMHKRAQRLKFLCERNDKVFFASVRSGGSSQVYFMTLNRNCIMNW

panel of 442 kinases [3] = biological target: T3, panel of 442 kinases (Homo sapiens, UniProt P07949, M918T); conditions: kinase RET(M918T); for remaining activity at 1 µM: read-out: RET(M918T) (% of control at 1 µM)
T3 construct: purchased Ambit Biosciences (scanMAXX KINOMEscan)

panel of 442 kinases [4] = biological target: T4, panel of 442 kinases (Homo sapiens, UniProt P49336); conditions: CDK8; for remaining activity at 1 µM: read-out: % of control at 1 µM
T4 construct: purchased Ambit Biosciences (scanMAXX KINOMEscan)
T4 sequence (P49336 whole entry): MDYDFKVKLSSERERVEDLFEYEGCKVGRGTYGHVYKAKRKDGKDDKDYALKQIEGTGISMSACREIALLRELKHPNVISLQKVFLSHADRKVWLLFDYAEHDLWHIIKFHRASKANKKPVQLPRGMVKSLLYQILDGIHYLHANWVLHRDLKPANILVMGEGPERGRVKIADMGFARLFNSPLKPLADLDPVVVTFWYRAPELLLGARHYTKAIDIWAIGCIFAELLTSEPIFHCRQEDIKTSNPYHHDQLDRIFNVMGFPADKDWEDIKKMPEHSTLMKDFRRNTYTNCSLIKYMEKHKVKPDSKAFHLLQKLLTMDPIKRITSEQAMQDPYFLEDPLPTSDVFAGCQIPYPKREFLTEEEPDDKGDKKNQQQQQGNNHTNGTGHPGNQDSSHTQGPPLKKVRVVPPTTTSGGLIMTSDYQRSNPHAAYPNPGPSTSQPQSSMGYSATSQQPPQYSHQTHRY

panel of 442 kinases [5] = biological target: T5, panel of 442 kinases (Homo sapiens, UniProt Q99640); conditions: kinase PKMYT1; for remaining activity at 1 µM: read-out: PKMYT1 (% of control at 1 µM)
T5 construct: purchased Ambit Biosciences (scanMAXX KINOMEscan)
T5 sequence (Q99640 1-499): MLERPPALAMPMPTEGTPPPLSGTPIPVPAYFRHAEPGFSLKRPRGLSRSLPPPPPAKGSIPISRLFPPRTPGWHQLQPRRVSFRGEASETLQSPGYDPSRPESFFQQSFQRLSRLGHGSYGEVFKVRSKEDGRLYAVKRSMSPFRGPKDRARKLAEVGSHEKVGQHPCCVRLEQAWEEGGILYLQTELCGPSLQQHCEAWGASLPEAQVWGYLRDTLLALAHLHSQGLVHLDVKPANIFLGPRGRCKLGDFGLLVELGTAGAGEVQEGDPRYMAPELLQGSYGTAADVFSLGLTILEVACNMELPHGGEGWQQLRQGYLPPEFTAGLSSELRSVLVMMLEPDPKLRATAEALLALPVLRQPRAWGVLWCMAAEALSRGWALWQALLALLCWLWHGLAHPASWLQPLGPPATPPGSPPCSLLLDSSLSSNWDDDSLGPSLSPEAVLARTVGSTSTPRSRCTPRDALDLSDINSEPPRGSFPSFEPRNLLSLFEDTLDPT

panel of 442 kinases [6] = biological target: T6, panel of 442 kinases (Homo sapiens, UniProt P28482); conditions: ERK2; for remaining activity at 1 µM: read-out: % of control at 1 µM
T6 construct: purchased Ambit Biosciences (scanMAXX KINOMEscan)

panel of 442 kinases [7] = biological target: T7, panel of 442 kinases (Homo sapiens, UniProt Q96GD4); conditions: AURKB; for remaining activity at 1 µM: read-out: % of control at 1 µM
T7 construct: purchased Ambit Biosciences (scanMAXX KINOMEscan)

panel of 442 kinases [8] = biological target: T8, panel of 442 kinases (Homo sapiens, UniProt P04629); conditions: kinase TRKA; for remaining activity at 1 µM: read-out: TRKA (% of control at 1 µM)
T8 construct: purchased Ambit Biosciences (scanMAXX KINOMEscan)

panel of 442 kinases [9] = biological target: T9, panel of 442 kinases (Homo sapiens, UniProt Q02763); conditions: kinase TIE2; for remaining activity at 1 µM: read-out: TIE2 (% of control at 1 µM)
T9 construct: purchased Ambit Biosciences (scanMAXX KINOMEscan)
T9 sequence (Q02763 23-1124): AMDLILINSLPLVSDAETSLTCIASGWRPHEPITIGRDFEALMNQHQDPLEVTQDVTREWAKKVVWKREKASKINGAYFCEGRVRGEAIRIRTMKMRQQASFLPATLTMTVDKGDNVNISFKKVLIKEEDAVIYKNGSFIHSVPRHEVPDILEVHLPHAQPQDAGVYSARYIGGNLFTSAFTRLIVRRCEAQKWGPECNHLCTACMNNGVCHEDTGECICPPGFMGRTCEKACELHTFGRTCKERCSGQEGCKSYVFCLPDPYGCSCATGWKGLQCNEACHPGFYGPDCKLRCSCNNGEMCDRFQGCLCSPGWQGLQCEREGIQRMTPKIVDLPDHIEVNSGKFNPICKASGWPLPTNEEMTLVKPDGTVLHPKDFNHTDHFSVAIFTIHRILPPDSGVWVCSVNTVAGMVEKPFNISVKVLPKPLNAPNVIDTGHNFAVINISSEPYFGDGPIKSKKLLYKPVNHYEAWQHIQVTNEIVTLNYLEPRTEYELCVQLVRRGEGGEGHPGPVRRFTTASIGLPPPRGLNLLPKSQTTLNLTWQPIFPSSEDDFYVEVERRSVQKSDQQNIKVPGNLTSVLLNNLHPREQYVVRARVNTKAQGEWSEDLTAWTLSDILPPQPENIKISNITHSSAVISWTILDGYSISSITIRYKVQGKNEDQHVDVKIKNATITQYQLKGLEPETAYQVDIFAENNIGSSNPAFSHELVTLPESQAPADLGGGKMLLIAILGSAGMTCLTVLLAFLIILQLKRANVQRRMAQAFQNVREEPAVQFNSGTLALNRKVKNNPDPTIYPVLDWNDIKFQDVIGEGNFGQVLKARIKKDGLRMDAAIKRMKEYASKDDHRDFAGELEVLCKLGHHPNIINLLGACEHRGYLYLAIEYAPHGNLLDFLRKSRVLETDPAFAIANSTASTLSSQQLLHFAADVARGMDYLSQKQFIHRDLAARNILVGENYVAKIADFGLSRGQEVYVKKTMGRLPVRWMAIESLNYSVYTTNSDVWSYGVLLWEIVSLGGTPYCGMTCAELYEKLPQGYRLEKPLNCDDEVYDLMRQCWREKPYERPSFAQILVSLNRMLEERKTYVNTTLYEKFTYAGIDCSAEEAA

panel of 442 kinases [10] = biological target: T10, panel of 442 kinases (Homo sapiens, UniProt P07949, V804L); conditions: kinase RET(V804L); for remaining activity at 1 µM: read-out: RET(V804L) (% of control at 1 µM)
T10 construct: purchased Ambit Biosciences (scanMAXX KINOMEscan)

panel of 442 kinases [11] = biological target: T11, panel of 442 kinases (Homo sapiens, UniProt Q8NI60); conditions: ADCK3; for remaining activity at 1 µM: read-out: % of control at 1 µM
T11 construct: purchased Ambit Biosciences (scanMAXX KINOMEscan)

panel of 442 kinases [12] = biological target: T12, panel of 442 kinases (Homo sapiens, UniProt P10721); conditions: kinase KIT; for remaining activity at 1 µM: read-out: % of control at 1 µM
T12 construct: purchased Ambit Biosciences (scanMAXX KINOMEscan)
T12 sequence (P10721 26-976): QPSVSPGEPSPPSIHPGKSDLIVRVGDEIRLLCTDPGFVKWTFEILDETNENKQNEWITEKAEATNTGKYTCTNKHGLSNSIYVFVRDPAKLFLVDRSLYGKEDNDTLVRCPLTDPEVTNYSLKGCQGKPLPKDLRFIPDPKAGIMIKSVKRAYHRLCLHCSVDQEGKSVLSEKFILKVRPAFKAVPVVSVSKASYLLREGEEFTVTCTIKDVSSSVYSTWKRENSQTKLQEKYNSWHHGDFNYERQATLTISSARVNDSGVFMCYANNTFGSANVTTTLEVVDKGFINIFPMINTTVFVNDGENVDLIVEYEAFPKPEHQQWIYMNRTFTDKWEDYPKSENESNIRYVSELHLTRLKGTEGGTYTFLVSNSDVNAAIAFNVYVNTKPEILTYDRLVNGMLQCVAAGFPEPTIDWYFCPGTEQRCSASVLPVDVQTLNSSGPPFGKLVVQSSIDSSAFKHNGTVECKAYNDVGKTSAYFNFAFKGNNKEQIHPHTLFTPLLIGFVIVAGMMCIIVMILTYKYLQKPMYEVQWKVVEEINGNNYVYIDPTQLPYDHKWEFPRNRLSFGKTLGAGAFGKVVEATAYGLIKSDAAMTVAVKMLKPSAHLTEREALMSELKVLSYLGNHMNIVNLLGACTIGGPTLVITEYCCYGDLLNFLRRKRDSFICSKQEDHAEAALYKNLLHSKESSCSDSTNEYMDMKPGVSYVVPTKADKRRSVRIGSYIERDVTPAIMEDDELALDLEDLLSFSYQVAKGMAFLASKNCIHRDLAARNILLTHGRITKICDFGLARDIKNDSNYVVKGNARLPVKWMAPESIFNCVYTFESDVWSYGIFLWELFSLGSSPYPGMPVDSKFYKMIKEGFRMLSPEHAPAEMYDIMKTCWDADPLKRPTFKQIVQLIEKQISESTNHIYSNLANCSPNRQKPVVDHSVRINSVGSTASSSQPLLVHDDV

panel of 442 kinases [13] = biological target: T13, panel of 442 kinases (Homo sapiens, UniProt P53779); conditions: kinase JNK3; for remaining activity at 1 µM: read-out: % of control at 1 µM
T13 construct: purchased Ambit Biosciences (scanMAXX KINOMEscan)

panel of 442 kinases [14] = biological target: T14, panel of 442 kinases (Homo sapiens, UniProt Q13163); conditions: kinase MEK5; for remaining activity at 1 µM: read-out: % of control at 1 µM
T14 construct: purchased Ambit Biosciences (scanMAXX KINOMEscan)
T14 sequence (Q13163 1-448): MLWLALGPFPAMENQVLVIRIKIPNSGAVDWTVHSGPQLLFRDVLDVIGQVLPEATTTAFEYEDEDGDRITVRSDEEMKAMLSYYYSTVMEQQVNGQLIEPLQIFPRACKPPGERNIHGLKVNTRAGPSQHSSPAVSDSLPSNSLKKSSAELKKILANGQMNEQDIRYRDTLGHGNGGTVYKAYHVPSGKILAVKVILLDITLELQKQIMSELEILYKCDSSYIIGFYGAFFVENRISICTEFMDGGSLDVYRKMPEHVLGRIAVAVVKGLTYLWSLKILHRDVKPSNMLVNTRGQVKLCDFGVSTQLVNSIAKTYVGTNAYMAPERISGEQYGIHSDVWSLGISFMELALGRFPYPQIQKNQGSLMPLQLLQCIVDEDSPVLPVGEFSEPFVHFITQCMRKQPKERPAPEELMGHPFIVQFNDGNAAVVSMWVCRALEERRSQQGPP

panel of 442 kinases [15] = biological target: T15, panel of 442 kinases (Homo sapiens, UniProt Q9UIK4); conditions: DAPK2; for remaining activity at 1 µM: read-out: % of control at 1 µM
T15 construct: purchased Ambit Biosciences (scanMAXX KINOMEscan)

panel of 442 kinases [16] = biological target: T16, panel of 442 kinases (Homo sapiens, UniProt P00533, G719C); conditions: EGFR(G719C); for remaining activity at 1 µM: read-out: % of control at 1 µM
T16 construct: purchased Ambit Biosciences (scanMAXX KINOMEscan)

panel of 442 kinases [17] = biological target: T17, panel of 442 kinases (Homo sapiens, UniProt P12931); conditions: kinase SRC; for remaining activity at 1 µM: read-out: SRC (% of control at 1 µM)
T17 construct: purchased Ambit Biosciences (scanMAXX KINOMEscan)
T17 sequence (P12931 whole entry): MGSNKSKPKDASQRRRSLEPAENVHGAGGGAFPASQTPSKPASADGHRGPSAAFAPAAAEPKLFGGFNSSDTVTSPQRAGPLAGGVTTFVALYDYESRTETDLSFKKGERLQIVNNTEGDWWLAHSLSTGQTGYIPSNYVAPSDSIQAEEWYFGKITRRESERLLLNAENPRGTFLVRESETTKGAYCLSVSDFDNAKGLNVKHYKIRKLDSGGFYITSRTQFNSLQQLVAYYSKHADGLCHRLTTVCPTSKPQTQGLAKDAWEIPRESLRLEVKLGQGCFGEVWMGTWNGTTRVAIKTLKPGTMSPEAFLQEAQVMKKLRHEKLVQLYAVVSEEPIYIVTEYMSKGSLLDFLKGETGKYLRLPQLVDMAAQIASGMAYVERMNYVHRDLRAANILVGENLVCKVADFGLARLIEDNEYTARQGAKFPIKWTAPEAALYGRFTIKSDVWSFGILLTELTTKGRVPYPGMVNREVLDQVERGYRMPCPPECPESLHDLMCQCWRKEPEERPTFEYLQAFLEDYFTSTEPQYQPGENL

panel of 442 kinases [18] = biological target: T18, panel of 442 kinases (Homo sapiens, UniProt P07332); conditions: FES; for remaining activity at 1 µM: read-out: % of control at 1 µM
T18 construct: purchased Ambit Biosciences (scanMAXX KINOMEscan)

panel of 442 kinases [19] = biological target: T19, panel of 442 kinases (Homo sapiens, UniProt Q13705); conditions: ACVR2B; for remaining activity at 1 µM: read-out: % of control at 1 µM
T19 construct: purchased Ambit Biosciences (scanMAXX KINOMEscan)

panel of 442 kinases [20] = biological target: T20, panel of 442 kinases (Homo sapiens, UniProt Q5VT25); conditions: kinase MRCKA; for remaining activity at 1 µM: read-out: % of control at 1 µM
T20 construct: purchased Ambit Biosciences (scanMAXX KINOMEscan)

[21] = 10 µM, read-out: % of control at 10 µM

T1 sequence (Q9H4B4 whole entry): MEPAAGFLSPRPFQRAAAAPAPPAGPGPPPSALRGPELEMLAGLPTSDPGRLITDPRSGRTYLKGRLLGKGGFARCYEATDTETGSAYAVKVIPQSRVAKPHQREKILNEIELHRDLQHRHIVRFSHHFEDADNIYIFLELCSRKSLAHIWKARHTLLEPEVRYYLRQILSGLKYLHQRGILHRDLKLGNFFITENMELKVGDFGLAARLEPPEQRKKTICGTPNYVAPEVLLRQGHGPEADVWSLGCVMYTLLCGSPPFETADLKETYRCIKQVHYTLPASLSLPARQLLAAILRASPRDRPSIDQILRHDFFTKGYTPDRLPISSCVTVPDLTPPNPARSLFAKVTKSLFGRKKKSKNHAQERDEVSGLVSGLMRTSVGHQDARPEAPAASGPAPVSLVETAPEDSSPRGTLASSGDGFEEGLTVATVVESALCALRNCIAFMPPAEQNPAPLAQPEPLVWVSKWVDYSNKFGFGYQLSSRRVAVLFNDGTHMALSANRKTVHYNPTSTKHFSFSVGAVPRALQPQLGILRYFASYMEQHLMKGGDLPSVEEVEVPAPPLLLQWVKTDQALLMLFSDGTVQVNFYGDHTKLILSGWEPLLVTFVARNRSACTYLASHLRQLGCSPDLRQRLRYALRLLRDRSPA

Structure (SMILES)	remaining activity at 1 µM (panel of 442 kinases [1]) [%]	remaining activity at 1 µM (panel of 442 kinases [2]) [%]	remaining activity at 1 µM (panel of 442 kinases [3]) [%]	remaining activity at 1 µM (panel of 442 kinases [4]) [%]	remaining activity at 1 µM (panel of 442 kinases [5]) [%]	remaining activity at 1 µM (panel of 442 kinases [6]) [%]	remaining activity at 1 µM (panel of 442 kinases [7]) [%]	remaining activity at 1 µM (panel of 442 kinases [8]) [%]	remaining activity at 1 µM (panel of 442 kinases [9]) [%]	remaining activity at 1 µM (panel of 442 kinases [10]) [%]	remaining activity at 1 µM (panel of 442 kinases [11]) [%]	remaining activity at 1 µM (panel of 442 kinases [12]) [%]	remaining activity at 1 µM (panel of 442 kinases [13]) [%]	remaining activity at 1 µM (panel of 442 kinases [14]) [%]	remaining activity at 1 µM (panel of 442 kinases [15]) [%]	remaining activity at 1 µM (panel of 442 kinases [16]) [%]	remaining activity at 1 µM (panel of 442 kinases [17]) [%]	remaining activity at 1 µM (panel of 442 kinases [18]) [%]	remaining activity at 1 µM (panel of 442 kinases [19]) [%]	remaining activity at 1 µM (panel of 442 kinases [20]) [%]	further results
Nc1cc(C(F)(F)F)c(-c2cc(N3CCOCC3)nc(N3CCOCC3)n2)cn1 [Buparlisib]	97	100	100	100	100	100	93	97	100	100	100	89	100	88	100	84	94	100	100	80	remaining activity at 10 µM (panel of 442 kinases [1]; 10 µM, read-out: PLK3 (% of control at 10 µM)): 100%; remaining activity at 10 µM (panel of 442 kinases [2]; [21]): 100%; remaining activity at 10 µM (panel of 442 kinases [3]; 10 µM, read-out: RET(M918T) (% of control at 10 µM)): 95%; remaining activity at 10 µM (panel of 442 kinases [4]; [21]): 100%; remaining activity at 10 µM (panel of 442 kinases [5]; 10 µM, read-out: PKMYT1 (% of control at 10 µM)): 100%; remaining activity at 10 µM (panel of 442 kinases [6]; [21]): 78%; remaining activity at 10 µM (panel of 442 kinases [7]; [21]): 100%; remaining activity at 10 µM (panel of 442 kinases [8]; 10 µM, read-out: TRKA (% of control at 10 µM)): 80%; remaining activity at 10 µM (panel of 442 kinases [9]; 10 µM, read-out: TIE2 (% of control at 10 µM)): 100%; remaining activity at 10 µM (panel of 442 kinases [10]; 10 µM, read-out: RET(V804L) (% of control at 10 µM)): 100%; remaining activity at 10 µM (panel of 442 kinases [11]; [21]): 89%; remaining activity at 10 µM (panel of 442 kinases [12]; [21]): 66%; remaining activity at 10 µM (panel of 442 kinases [13]; [21]): 100%; remaining activity at 10 µM (panel of 442 kinases [14]; [21]): 85%; remaining activity at 10 µM (panel of 442 kinases [15]; [21]): 100%; remaining activity at 10 µM (panel of 442 kinases [16]; [21]): 83%; remaining activity at 10 µM (panel of 442 kinases [17]; 10 µM, read-out: SRC (% of control at 10 µM)): 100%; remaining activity at 10 µM (panel of 442 kinases [18]; [21]): 100%; remaining activity at 10 µM (panel of 442 kinases [19]; [21]): 100%; remaining activity at 10 µM (panel of 442 kinases [20]; [21]): 100%
Cn1c(=O)n(-c2ccc(C(C)(C)C#N)cc2)c2c3cc(-c4cnc5ccccc5c4)ccc3ncc21 [Dactolisib, 2-methyl-2-[4-(3-methyl-2-oxo-8-quinolin-3-yl-2,3-dihydroimidazo[4,5-c]quinolin-1-yl)-phenyl] propionitrile]	88	49	100	100	75	88	–	–	100	99	82	63	100	42	97	–	94	92	85	83	–
COc1ncc(-c2ccc3nccc(-c4ccnnc4)c3c2)cc1NS(=O)(=O)c1ccc(F)cc1F [Omipalisib]	82	83	100	70	81	100	100	80	100	99	87	100	90	69	100	100	100	100	100	97	–
FC(F)c1nc2ccccc2n1-c1nc(N2CCOCC2)nc(N2CCOCC2)n1 [ZSTK474, 2-(difluoromethyl)-1-[4,6-di(4-morpholinyl)-1,3,5-triazin-2-yl]-1H-benzimidazole]	83	100	89	80	72	100	90	100	100	93	82	85	100	99	100	97	100	100	89	83	–
